Assay results from patent publication US9650379B2 (CHONG KUN DANG PHARMACEUTICAL CORP., priority 2013, dated 2017).
pIC50: −log10 of the molar value.

Key:
HDAC6 human recombinant = biological target: T1, HDAC6 human recombinant (Homo sapiens, UniProt Q9UBN7); assay: Inhibition of HDAC6 activity (fluorimetric assay); format: biochemical; conditions: test concentrations 0.1, 1, 10, 100 and 1000 nM; 37° C., 60 minutes
T1 construct: purchased Calbiochem 382180
T1 sequence (Q9UBN7 1-1215): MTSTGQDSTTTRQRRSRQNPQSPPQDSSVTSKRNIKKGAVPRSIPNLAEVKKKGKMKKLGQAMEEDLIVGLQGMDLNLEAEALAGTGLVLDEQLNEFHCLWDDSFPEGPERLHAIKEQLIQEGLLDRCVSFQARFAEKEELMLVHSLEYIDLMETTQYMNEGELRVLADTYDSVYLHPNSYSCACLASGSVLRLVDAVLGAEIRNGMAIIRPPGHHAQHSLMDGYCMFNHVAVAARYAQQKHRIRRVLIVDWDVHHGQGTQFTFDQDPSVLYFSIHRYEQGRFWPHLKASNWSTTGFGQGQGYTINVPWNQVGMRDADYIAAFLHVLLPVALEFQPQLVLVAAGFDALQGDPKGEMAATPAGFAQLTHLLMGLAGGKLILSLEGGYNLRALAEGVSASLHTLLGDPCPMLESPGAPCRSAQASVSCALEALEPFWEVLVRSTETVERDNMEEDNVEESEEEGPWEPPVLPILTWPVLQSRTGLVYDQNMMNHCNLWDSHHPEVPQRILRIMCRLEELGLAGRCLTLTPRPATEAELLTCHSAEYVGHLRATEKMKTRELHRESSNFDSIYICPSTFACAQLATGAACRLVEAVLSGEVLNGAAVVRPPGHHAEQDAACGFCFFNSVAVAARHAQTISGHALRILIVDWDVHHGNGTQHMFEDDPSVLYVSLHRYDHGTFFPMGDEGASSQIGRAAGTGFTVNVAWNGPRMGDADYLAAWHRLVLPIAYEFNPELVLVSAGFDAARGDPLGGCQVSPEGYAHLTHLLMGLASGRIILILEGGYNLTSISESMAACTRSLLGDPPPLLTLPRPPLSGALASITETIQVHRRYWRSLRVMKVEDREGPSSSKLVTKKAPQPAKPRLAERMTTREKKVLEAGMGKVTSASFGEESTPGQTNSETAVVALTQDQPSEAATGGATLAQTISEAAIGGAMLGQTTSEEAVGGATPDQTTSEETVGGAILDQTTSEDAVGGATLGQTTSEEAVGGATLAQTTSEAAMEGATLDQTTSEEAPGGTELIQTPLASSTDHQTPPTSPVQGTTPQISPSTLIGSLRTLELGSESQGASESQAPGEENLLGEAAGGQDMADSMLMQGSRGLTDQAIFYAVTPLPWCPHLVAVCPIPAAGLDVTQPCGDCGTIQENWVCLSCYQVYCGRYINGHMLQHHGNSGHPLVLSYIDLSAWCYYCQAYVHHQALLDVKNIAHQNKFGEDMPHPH
Method in brief: (§1)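 HDAC1 tested with the kit assay mixture at 100, 1000 and 10000 nM compound; recombinant human HDAC6 at 0.1, 1, 10, 100 and 1000 nM. Reaction ran 60 min at 37° C, then developer was added for 30 min at 37° C and fluorescence quantified.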

HDAC1 = biological target: T2, HDAC1 (Homo sapiens, UniProt Q13547); assay: Inhibition of HDAC1 activity (HDAC1 fluorimetric drug discovery assay kit); format: biochemical; conditions: test concentrations 100, 1000 and 10000 nM; 37° C., 60 minutes
T2 construct: purchased Enzolifesciences BML-AK511
T2 sequence (Q13547 whole entry): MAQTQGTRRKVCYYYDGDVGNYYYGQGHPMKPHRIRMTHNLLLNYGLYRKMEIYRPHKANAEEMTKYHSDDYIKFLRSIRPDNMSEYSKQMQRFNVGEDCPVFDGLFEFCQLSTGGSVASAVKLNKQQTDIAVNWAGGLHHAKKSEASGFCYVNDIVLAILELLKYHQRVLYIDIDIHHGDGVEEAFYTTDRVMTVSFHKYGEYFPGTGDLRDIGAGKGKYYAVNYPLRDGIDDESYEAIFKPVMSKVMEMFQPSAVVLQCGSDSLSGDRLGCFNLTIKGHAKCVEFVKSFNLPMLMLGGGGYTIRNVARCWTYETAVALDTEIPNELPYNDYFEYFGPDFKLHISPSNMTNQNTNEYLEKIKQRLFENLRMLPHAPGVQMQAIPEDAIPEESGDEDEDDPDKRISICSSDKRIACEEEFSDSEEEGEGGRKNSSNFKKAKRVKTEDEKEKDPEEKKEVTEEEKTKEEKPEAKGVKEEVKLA
Method in brief: as §1

| pIC50 (HDAC6 human recombinant) | pIC50 (HDAC1) | Structure (SMILES) |
| --- | --- | --- |
| 6.78 | 5.20 | O=C(NO)c1ccc(Cn2ccc3cc(C4CCN(Cc5ccc(C(F)(F)F)cc5)CC4)cnc32)cc1 [Compound 872, N-hydroxy-4-((5-(1-(4-(trifluoromethyl)benzyl)piperidin-4-yl)-1H-pyrrolo[2,3-b]pyridin-1-yl)methyl)benzamide] |
| 7.78 | 6.12 | O=C(NO)c1ccc(Cn2ccc3cc(C4CCN(Cc5ccc(-n6ccnc6)cc5)CC4)cnc32)cc1 [Compound 873, 4-((5-(1-(4-(1H-imidazol-1-yl)benzyl)piperidin-4-yl)-1H-pyrrolo[2,3-b]pyridin-1-yl)methyl)-N-hydroxybenzamide] |
| 7.73 | 6.16 | O=C(NO)c1ccc(Cn2ccc3cc(C4CCN(Cc5ccc(-n6cnnc6)cc5)CC4)cnc32)cc1 [Compound 874, 4-((5-(1-(4-(4H-1,2,4-triazol-4-yl)benzyl)piperidin-4-yl)-1H-pyrrolo[2,3-b]pyridin-1-yl)methyl)-N-hydroxybenzamide] |
| 7.49 | 5.63 | O=C(NO)c1ccc(Cn2ccc3cc(C4CCN(Cc5ccc(-c6ccco6)cc5)CC4)cnc32)cc1 [Compound 875, 4-((5-(1-(4-(furan-2-yl)benzyl)piperidin-4-yl)-1H-pyrrolo[2,3-b]pyridin-1-yl)methyl)-N-hydroxybenzamide] |
| 7.38 | 5.55 | O=C(NO)c1ccc(Cn2ccc3cc(C4CCN(S(=O)(=O)c5ccccc5)CC4)cnc32)cc1 [Compound 876, N-hydroxy-4-((5-(1-(phenylsulfonyl)piperidin-4-yl)-1H-pyrrolo[2,3-b]pyridin-1-yl)methyl)benzamide] |
| 8.06 | 6.11 | CN1CCN(Cc2ccc(CN3CCC(c4cnc5c(ccn5Cc5ccc(C(=O)NO)cc5)c4)CC3)cc2)CC1 [Compound 877, N-hydroxy-4-((5-(1-(4-((4-methylpiperazin-1-yl)methyl)benzyl)piperidin-4-yl)-1H-pyrrolo[2,3-b]pyridin-1-yl)methyl)benzamide] |
| 8.19 | 5.95 | O=C(NO)c1ccc(Cn2ccc3cc(C4CCN(Cc5cccc(CN6CCOCC6)c5)CC4)cnc32)cc1 [Compound 878, N-hydroxy-4-((5-(1-(3-(morpholinomethyl)benzyl)piperidin-4-yl)-1H-pyrrolo[2,3-b]pyridin-1-yl)methyl)benzamide] |
| 8.12 | 5.98 | CN1CCN(Cc2cccc(CN3CCC(c4cnc5c(ccn5Cc5ccc(C(=O)NO)cc5)c4)CC3)c2)CC1 [Compound 879, N-hydroxy-4-((5-(1-(3-((4-methylpiperazin-1-yl)methyl)benzyl)piperidin-4-yl)-1H-pyrrolo[2,3-b]pyridin-1-yl)methyl)benzamide] |
| 8.22 | 6.11 | O=C(NO)c1ccc(Cn2ccc3cc(C4CCN(Cc5cncnc5)CC4)cnc32)cc1 [Compound 880, N-hydroxy-4-((5-(1-(pyrimidin-5-ylmethyl)piperidin-4-yl)-1H-pyrrolo[2,3-b]pyridin-1-yl)methyl)benzamide] |
| 8.28 | 6.07 | O=C(NO)c1ccc(Cn2ccc3cc(C4CCN(Cc5ncccn5)CC4)cnc32)cc1 [Compound 881, N-hydroxy-4-((5-(1-(pyrimidin-2-ylmethyl)piperidin-4-yl)-1H-pyrrolo[2,3-b]pyridine-1-yl)methyl)benzamide] |
| 8.12 | 5.94 | O=C(NO)c1ccc(Cn2ccc3cc(C4CCN(Cc5ccc(CN6CCOCC6)cc5)CC4)cnc32)cc1 [Compound 882, N-hydroxy-4-((5-(1-(4-(morpholinomethyl)benzyl)piperidin-4-yl)-1H-pyrrolo[2,3-b]pyridin-1-yl)methyl)benzamide] |
| 8.68 | 5.68 | CN1CCN(c2ccccc2CN2CCC(c3cnc4c(ccn4Cc4ccc(C(=O)NO)cc4)c3)CC2)CC1 [Compound 883, N-hydroxy-4-((5-(1-(2-(4-methylpiperzin-1-yl)benzyl)piperidin-4-yl)-1H-pyrrolo[2,3-b]pyridin-1-yl)methyl)benzamide] |
| 8.12 | 5.97 | O=C(NO)c1ccc(Cn2ccc3cc(C4CCN(C(=O)c5cccc(CN6CCOCC6)c5)CC4)cnc32)cc1 [Compound 895, N-hydroxy-4-((5-(1-(3-(morpholinomethyl)benzoyl)piperidin-4-yl)-1H-pyrrolo[2,3-b]pyridin-1-yl)methyl)benzamide] |
| 8.07 | 6.10 | CN1CCN(Cc2cccc(C(=O)N3CCC(c4cnc5c(ccn5Cc5ccc(C(=O)NO)cc5)c4)CC3)c2)CC1 [Compound 896, N-hydroxy-4-((5-(1-(3-((4-methylpiperazin-1-yl)methyl)benzoyl)piperidin-4-yl)-1H-pyrrolo[2,3-b]pyridin-1-yl)methyl)benzamide] |
| 8.13 | 5.96 | O=C(NO)c1ccc(Cn2ccc3cc(C4CCN(C(=O)c5ccc(CN6CCOCC6)cc5)CC4)cnc32)cc1 [Compound 897, N-hydroxy-4-((5-(1-(4-(morpholinomethyl)benzoyl)piperidin-4-yl)-1H-pyrrolo[2,3-b]pyridin-1-yl)methyl)benzamide] |
| 8.21 | 6.11 | CN1CCN(Cc2ccc(C(=O)N3CCC(c4cnc5c(ccn5Cc5ccc(C(=O)NO)cc5)c4)CC3)cc2)CC1 [Compound 898, N-hydroxy-4-((5-(1-(4-((4-methylpiperazin-1-yl)methyl)benzoyl)piperidin-4-yl)-1H-pyrrolo[2,3-b]pyridin-1-yl)methyl)benzamide] |
| 8.24 | 6.11 | O=C(O)CN1CCC(c2ccnc3c2ccn3Cc2ccc(C(=O)NO)cc2)CC1 [Compound 917, 2-(4-(1-(4-(hydroxycarbamoyl)benzyl)-1H-pyrrolo[2,3-b]pyridin-4-yl)piperidin-1-yl)acetic acid] |
| 8.35 | 6.08 | O=C(O)CCN1CCC(c2ccnc3c2ccn3Cc2ccc(C(=O)NO)cc2)CC1 [Compound 927, 3-(4-(1-(4-(hydroxycarbamoyl)benzyl)-1H-pyrrolo[2,3-b]pyridin-4-yl)piperidin-1-yl)propionic acid] |
| 8.77 | 6.60 | CC(C)(O)CN1C2CCC1CC(c1ccnc3c1ccn3Cc1ccc(C(=O)NO)cc1)C2 (stereo not drawn) [Compound 930, N-hydroxy-4-((4-(8-(2-hydroxy-2-methylpropyl)-8-aza-bicyclo[3.2.1]octan-3-yl)-1H-pyrrolo[2,3-b]pyridin-1-yl)methyl)benzamide] |
| 8.43 | 6.70 | CC(O)(CO)CN1CCC(c2ccnc3c2ccn3Cc2ccc(C(=O)NO)cc2)CC1 (stereo not drawn) [Compound 945, 4-((4-(1-(2,3-dihydroxy-2-methylpropyl)piperidin-4-yl)-1H-pyrrolo[2,3-b]pyridin-1-yl)methyl)-N-hydroxybenzamide] |
| 8.70 | 6.31 | CC(O)(CO)CN1CCC(c2cnc3c(ccn3Cc3ccc(C(=O)NO)cc3)c2)CC1 (stereo not drawn) [Compound 946, 4-((5-(1-(2,3-dihydroxy-2-methylpropyl)piperidin-4-yl)-1H-pyrrolo[2,3-b]pyridin-1-yl)methyl)-N-hydroxybenzamide] |
| 8.43 | 6.08 | CC(C)(O)CN1CC2(CCN(c3cnc4c(ccn4Cc4ccc(C(=O)NO)cc4)c3)CC2)C1 [Compound 956, N-hydroxy-4-((5-(2-(2-hydroxy-2-methylpropyl)-2,7-diazaspiro[3.5]nanan-7-yl)-1H-pyrrolo[2,3-b]pyridin-1-yl)methyl)benzamide] |
| 8.80 | 6.19 | O=C(NO)c1ccc(Cn2ccc3cc(N4CCC5(CC4)CN(Cc4cccnc4)C5)cnc32)cc1 [Compound 957, N-hydroxy-4-((5-(2-(pyridin-3-ylmethyl)-2,7-diazaspiro[3.5]nonan-7-yl)-1H-pyrrolo[2,3-b]pyridin-1-yl)methyl)benzamide] |
| 7.92 | 6.05 | COc1ccc(CN2CCC(c3ccnc4c3ccn4Cc3ccc(C(=O)NO)cc3)CC2)cc1 [Compound 959, N-hydroxy-4-((4-(1-(4-methoxybenzyl)piperidin-4-yl)-1H-pyrrolo[2,3-b]pyridin-1-yl)methyl)benzamide] |
